The results in this text go back to US20220112175A1, “PYRIDAZINES HERBICIDAL COMPOUNDS” (SYNGENTA CROP PROTECTION AG, priority 2019, published 2022).

Assay in all cases: Post-emergence efficacy, glasshouse pot test
Holding throughout (type): in vivo

The subject of experiment [1] is Digitaria sanguinalis (DIGSA). To be noted: 312 h, Application rate 500 g/Ha, post-emergence spray, evaluated after 13 days, read-out: Post-emergence efficacy DIGSA (100=total damage to plant; 0=no damage to plant). The protocol: (§1) Seeds of a variety of test species were sown in standard soil in pots. After cultivation for 14 days (post-emergence) under controlled conditions in a glasshouse (at 24/16° C., day/night; 14 hours light; 65% humidity), the plants were sprayed with an aqueous spray solution derived from the dissolution of the technical active ingredient formula (I) in a small amount of acetone and a special solvent and emulsifier mixture referred to as IF50 (11.12% Emulsogen EL360 TM+44.44% N-methylpyrrolidone+44.44% Dowanol DPM glycol ether), to create a 50 g/l solution which was then diluted to required concentration using 0.25% or 1% Empicol ESC70 (Sodium lauryl ether sulphate)+1% ammonium sulphate as diluent.
(§2) The test plants were then grown in a glasshouse under controlled conditions (at 24/16° C., day/night; 14 hours light; 65% humidity) and watered twice daily. After 13 days the test was evaluated (100=total damage to plant; 0=no damage to plant).
(§3) Ipomoea hederacea (IPOHE), Euphorbia heterophylla (EPHHL), Chenopodium album (CHEAL), Amaranthus palmeri (AMAPA), Lolium perenne (LOLPE), Digitaria sanguinalis (DIGSA), Eleusine indica (ELEIN), Echinochloa crus-galli (ECHCG), Setaria faberi (SETFA)

Experiment [2] relates to Amaranthus palmeri (AMAPA). The following applies: 312 h, Application rate 500 g/Ha, post-emergence spray, evaluated after 13 days, read-out: Post-emergence efficacy AMAPA (100=total damage to plant; 0=no damage to plant). The protocol: as §1, §2, §3
The test system of experiment [3] is Ipomoea hederacea (IPOHE). The following applies: 312 h, Application rate 500 g/Ha, post-emergence spray, evaluated after 13 days, read-out: Post-emergence efficacy IPOHE (100=total damage to plant; 0=no damage to plant). The protocol:
as §1, §2, §3

The subject of experiment [4] is Euphorbia heterophylla (EPHHL). To be noted: 312 h, Application rate 500 g/Ha, post-emergence spray, evaluated after 13 days, read-out: Post-emergence efficacy EPHHL (100=total damage to plant; 0=no damage to plant). The protocol: as §1, §2, §3
A further experiment relates to Setaria faberi (SETFA). The following applies: 312 h, Application rate 500 g/Ha, post-emergence spray, evaluated after 13 days, read-out: Post-emergence efficacy SETFA (100=total damage to plant; 0=no damage to plant). The protocol: as §1, §2, §3
In experiment [5] the test system is Echinochloa crus-galli (ECHCG). The following applies: 312 h, Application rate 500 g/Ha, post-emergence spray, evaluated after 13 days, read-out: Post-emergence efficacy ECHCG (100=total damage to plant; 0=no damage to plant). The protocol:
as §1, §2, §3

The test system of another experiment is Lolium perenne (LOLPE). The following applies: 312 h, Application rate 500 g/Ha, post-emergence spray, evaluated after 13 days, read-out: Post-emergence efficacy LOLPE (100=total damage to plant; 0=no damage to plant). The protocol:
as §1, §2, §3

For the next experiment, the system named is Eleusine indica (ELEIN). The following applies: 312 h, Application rate 500 g/Ha, post-emergence spray, evaluated after 13 days, read-out: Post-emergence efficacy ELEIN (100=total damage to plant; 0=no damage to plant). The protocol:
as §1, §2, §3

Experiment [6] has as its system Chenopodium album (CHEAL). The following applies: 312 h, Application rate 500 g/Ha, post-emergence spray, evaluated after 13 days, read-out: Post-emergence efficacy CHEAL (100=total damage to plant; 0=no damage to plant). The protocol:
as §1, §2, §3

Regarding `O=C(C[n+]1ccc(-c2ncsn2)cn1)NC1(C(=O)O)CC1` [Compound A24], the pest or weed control at 500 g/ha amounted to 100% in experiment [1]; 100% in experiment [2]; 90% in experiment [3]; 90% in [4]; 80% in the experiment on Setaria faberi (SETFA); 80% in experiment [5]. In addition, the pest or weed control at 500 g/ha in the experiment with Lolium perenne (LOLPE) came out at 50%; in the experiment on Eleusine indica (ELEIN) it was 70%; in [6], 90%.
